How the values were obtained:
Test in all cases: relative viability (nuclei count vs DMSO), 5 days (fraction); higher = more cells survive
Quizartinib + OSI-027 = compound: CC(C)(C)c1cc(NC(=O)Nc2ccc(-c3cn4c(n3)sc3cc(OCCN5CCOCC5)ccc34)cc2)no1 [Quizartinib] + COc1cccc2cc(-c3nc([C@H]4CC[C@H](C(=O)O)CC4)n4ncnc(N)c34)[nH]c12 [OSI-027] (partner 0.5 µM)
Outline: (§1)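 One day after seeding in 1536-well plates, lung cancer cell lines were dosed by pin tool. Dosing was either single-drug or a fixed anchor-drug dose plus five library-drug doses (not always all listed) in √10 steps. After 5 days, nuclei were stained in one fix-and-stain step and counted on 4× images, and relative viability is the nuclei count of treated wells over that of vehicle wells, given as the median of duplicate plates.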

Quizartinib + Linsitinib = compound: CC(C)(C)c1cc(NC(=O)Nc2ccc(-c3cn4c(n3)sc3cc(OCCN5CCOCC5)ccc34)cc2)no1 [Quizartinib] + C[C@]1(O)C[C@@H](c2nc(-c3ccc4ccc(-c5ccccc5)nc4c3)c3c(N)nccn32)C1 [Linsitinib] (partner 1 µM)
Outline: as §1

Quizartinib + Phenformin = compound: CC(C)(C)c1cc(NC(=O)Nc2ccc(-c3cn4c(n3)sc3cc(OCCN5CCOCC5)ccc34)cc2)no1 [Quizartinib] + N=C(N)NC(=N)NCCc1ccccc1 [Phenformin] (partner 250 µM)
Outline: as §1

YM155 + Luminespib = compound: COCC[n+]1c2c(n(Cc3cnccn3)c1C)C(=O)c1ccccc1C2=O [YM155] + CCNC(=O)c1noc(-c2cc(C(C)C)c(O)cc2O)c1-c1ccc(CN2CCOCC2)cc1 [Luminespib] (partner 0.01 µM)
Outline: as §1

Row | Cell Line | relative viability (Quizartinib + OSI-027; first compound 0.003162 µM) | relative viability (Quizartinib + OSI-027; first compound 0.01 µM) | relative viability (Quizartinib + OSI-027; first compound 0.1 µM) | relative viability (Quizartinib + Linsitinib; first compound 0.001 µM) | relative viability (Quizartinib + Linsitinib; first compound 0.003162 µM) | relative viability (Quizartinib + Linsitinib; first compound 0.01 µM) | relative viability (Quizartinib + Linsitinib; first compound 0.03162 µM) | relative viability (Quizartinib + Linsitinib; first compound 0.1 µM) | relative viability (Quizartinib + Phenformin; first compound 0.003162 µM) | relative viability (Quizartinib + Phenformin; first compound 0.01 µM) | relative viability (Quizartinib + Phenformin; first compound 0.1 µM) | relative viability (YM155 + Luminespib; first compound 0.002 µM) | relative viability (YM155 + Luminespib; first compound 0.006325 µM) | relative viability (YM155 + Luminespib; first compound 0.02 µM) | relative viability (YM155 + Luminespib; first compound 0.06325 µM) | relative viability (Quizartinib + OSI-027; first compound 0.03162 µM) | relative viability (Quizartinib + Phenformin; first compound 0.001 µM) | relative viability (Quizartinib + Phenformin; first compound 0.03162 µM) | relative viability (Quizartinib + OSI-027; first compound 0.001 µM)
1 | HCC-15 | 0.71 | 0.583 | 0.644 | 0.799 | 0.823 | 0.874 | 0.828 | 0.814 | 0.461 | 0.396 | 0.436 | 0.361 | 0.369 | 0.311 | 0.161 | – | – | – | –
2 | HCC-44 | 0.641 | 0.416 | 0.549 | 0.639 | 0.647 | 0.695 | 0.69 | 0.632 | 0.323 | – | 0.261 | 1.04 | 1.05 | 0.92 | 0.219 | 0.475 | 0.203 | 0.169 | –
3 | HCC-78 | 0.375 | 0.357 | 0.377 | 0.471 | 0.4 | 0.486 | 0.451 | 0.514 | 0.832 | 0.707 | 0.73 | – | – | – | – | 0.325 | 0.687 | 0.574 | 0.398
4 | HCC-366 | 0.866 | 0.796 | 0.747 | 0.501 | 0.695 | 0.656 | 0.615 | 0.554 | 0.549 | 0.577 | 0.547 | – | – | – | – | 0.831 | 0.615 | 0.601 | 0.705
5 | HCC-827 | 0.77 | 0.945 | 0.79 | 0.99 | 0.924 | 1.05 | 0.962 | 0.994 | 0.385 | 0.44 | 0.404 | 0.662 | 0.451 | 0.403 | 0.586 | 0.798 | 0.372 | 0.402 | 0.749
6 | HOP-62 | 0.769 | 1.03 | 0.847 | 1.02 | 0.933 | 0.822 | 0.913 | 1.07 | 0.625 | 0.84 | 0.666 | 0.918 | 0.907 | 0.938 | 0.906 | 0.87 | 0.624 | 0.662 | 0.75
7 | IA-LM | – | – | – | 0.518 | 0.657 | 0.652 | 0.724 | 0.679 | – | – | – | – | – | – | – | – | – | – | –
8 | LC-2-ad | 0.866 | 0.757 | 0.626 | 0.77 | 0.782 | 0.909 | 0.76 | 0.605 | 0.639 | 0.579 | 0.502 | 0.942 | 0.959 | 0.869 | 0.331 | – | 0.498 | – | 0.842
9 | LCLC-97TM1 | 0.466 | 0.538 | 0.563 | – | 0.148 | 0.185 | 0.174 | 0.21 | 0.379 | 0.421 | 0.375 | 0.838 | 0.816 | 0.717 | 0.71 | 0.588 | 0.396 | 0.464 | 0.567
10 | LCLC-103H | 0.503 | 0.422 | 0.487 | 0.946 | 1.05 | 1.06 | 1.2 | 0.882 | 0.276 | 0.341 | 0.361 | 0.927 | 0.832 | 0.846 | 1.04 | 0.475 | 0.306 | 0.337 | 0.432
11 | LK-2 | 0.199 | 0.185 | 0.182 | 0.479 | 0.617 | 0.621 | 0.523 | 0.521 | – | 0.47 | 0.108 | 0.249 | 0.165 | 0.21 | 0.185 | 0.198 | 0.243 | 0.138 | 0.182
12 | NCI-H522 | 0.764 | 0.694 | 0.762 | – | – | – | – | – | 0.652 | 0.645 | 0.542 | 1.21 | 1.1 | 1.04 | 1.28 | 0.702 | 0.591 | 0.622 | 0.649
13 | NCI-H1299 | – | – | – | 0.952 | 0.95 | 0.987 | 1.02 | 1.01 | – | – | – | – | – | – | – | – | – | – | –
14 | NCI-H1623 | 0.419 | 0.41 | 0.412 | – | – | – | – | – | 0.645 | 0.599 | 0.634 | 0.43 | 0.464 | 0.458 | 0.497 | 0.383 | 0.455 | 0.595 | 0.457
15 | NCI-H1650 | 0.738 | 0.598 | 0.494 | – | – | – | – | – | 0.585 | 0.382 | 0.417 | 0.181 | 0.197 | 0.175 | 0.228 | – | 0.418 | – | 0.414
16 | NCI-H1703 | – | – | – | 0.832 | 0.456 | 0.165 | 0.162 | 0.231 | – | – | – | – | – | – | – | – | – | – | –
17 | NCI-H2170 | 0.659 | 0.825 | 0.816 | – | – | – | – | – | 0.432 | 0.403 | 0.378 | 0.525 | 0.751 | 0.647 | 0.596 | 0.774 | 0.415 | 0.436 | 0.695
18 | NCI-H2342 | 0.592 | 0.603 | 0.621 | – | – | – | – | – | 0.629 | 0.539 | 0.688 | 0.721 | 0.788 | 0.738 | 0.746 | 0.68 | 0.595 | 0.616 | 0.664
19 | SW 900 | 0.508 | – | 0.569 | – | – | – | – | – | 0.685 | – | 0.72 | 0.179 | 0.188 | 0.164 | 0.177 | 0.512 | 0.618 | 0.586 | 0.533

From the supplement of paper PMC10307832
